Test results: publication PMC9735573 (International Journal of Molecular Sciences, 2022)
Like-named read-outs stand apart in the source and are kept apart here.

Legend:
[1] = in vivo; conditions: female, BALB/c, mouse, ip, 50 mg/kg
[2] = Pharmacokinetic study in mice, Retro-2.1 in PLGA–PEG–PLGA hydrogel, 25 mg/kg SC; format: in vivo; conditions: for half-life: flip-flop pharmacokinetics, read-out: Thalf (apparent elimination half-life) (converted); for Cmax: mice plasma
[3] = mouse, in vivo, 2 mg/kg
[4] = test system: Shiga-like toxin-1 (Stx-1), HeLa cells; conditions: cited from earlier work
[5] = Characterisation and stability of Retro-2.1 formulation in PLGA–PEG–PLGA; format: physicochemical
Protocol: The thin-film rehydration technique was also used to formulate Retro-2.1 in PLGA–PEG–PLGA, using acetone as a dissolution solvent and saline as a rehydration vehicle. As previously described, the polymer was prepared as a 20% (w/v) solution in saline. This solution was able to stably dissolve 3.25 mg/mL of Retro-2.1, with an encapsulation yield of 98% and a drug loading of 1.9%. […] Of note, above 42 °C, the polymer aggregated and separated from water, which is in accordance with other reported polymers with similar structures. The formulation was stable for at least 13 days when stored at 4 °C. However, like the formulation in PEG–PLA, the formulation in PLGA–PEG–PLGA lost 20% of its payload upon storage at 25 °C for 24 h (Figure S10). Subsequent formulations were therefore freshly prepared and stored at 4 °C before use.
(§1) Dynamic light scattering experiments were performed using a Vasco Flex particle size analyzer equipped with a 450 nm laser. Data were recorded at 20 °C using a refractive index of 1.331 and a solvent viscosity of 0.982 cP. For each sample, 10 acquisitions were realized using a noise limit of 1% and 200 channels with a time interval of 1 µs. All samples were analyzed at a concentration of 10 mg/mL in 4 mL glass vials (Lab File, Wheaton) unless otherwise noted.
In a round-bottom flask, Retro-2.1 (59.8 mg, 137 µmol) and PLGA–PEG–PLGA (3.00 g, 545 µmol) were dissolved in acetone (15 mL). The solvent was removed under reduced pressure to yield a translucent pale-yellow polymeric film, which was further dried under vacuum for 4 h. The film was rehydrated with saline (15 mL) at room temperature, and 2 M NaOH solution in water was added to reach a pH of 7. The solution was sterile-filtered on a 0.2 µm membrane (Millex®) into 6 mL sterile vials and stored at 4 °C until further use. The Retro-2.1 concentration was determined using HPLC after dilution of the solution in MeCN. Drug loadings and encapsulation efficiencies were calculated, as described before.
(§2) A sample of the formulation was placed in a 500 µL Eppendorf tube and stored at −20 °C, 4 °C or room temperature (20–25 °C). At each timepoint, the sample was centrifuged (15,000× g, 5 min, 4 °C) and the Retro-2.1 concentration in the supernatant was determined using HPLC.

[6] = Aqueous solubility; format: physicochemical
[7] = human
[8] = test system: Shiga-like toxin-1 (Stx-1), HeLa cells; assay: cells; format: cell-based, human; conditions: for EC50: Homo sapiens, HeLa, read-out: EC50 (Stx-1 intoxication assay)
[9] = mouse, in vivo, ip, 50 mg/kg
[10] = mouse
[11] = in vivo; conditions: female, BALB/c, mouse, 2 mg/kg; for half-life: Thalf (elimination half-life)
[12] = Characterisation and stability of Retro-2.1 formulation in PEG–PLA micelles; format: physicochemical
Protocol: Retro-2.1 was encapsulated in PEG–PLA micelles using the thin-film hydration method, also known as the solvent casting method. This method allowed us to dissolve 4.55 mg/mL of the drug in 26.4 mg/mL of PEG–PLA solution, with an encapsulation yield of 91% and a drug loading of 15%, as determined with HPLC analysis using a calibration curve (Figure S1). […] As previously described, including for Genexol®-PM, these micelles are likely to be spherical. Although the zeta potential of these micelles was not determined in this study, PEG–PLA micelles are widely described to have a neutral to slightly negatively charged surface. […] However, about 35% of the drug load precipitated upon storage at room temperature for 24 h (Figure S3). Every subsequent formulation was therefore stored at −20 °C and thawed at 4 °C before use.
as §1
In a round-bottom flask, Retro-2.1 (92 mg, 211 µmol) and PEG–PLA (528 mg, 132 µmol) were dissolved in acetone (20 mL). The solvent was removed under reduced pressure to yield a transparent pale-yellow polymeric film, which was rehydrated with saline (15 mL) at 40 °C. Next, 2M NaOH solution in water was added to reach a pH of 7. The volume was adjusted to 20 mL with saline, and the solution was sterile-filtered on a 0.2 µm membrane (Millex®, Duluth, GA, USA) into several 6 mL sterile vials and stored at −20 °C until further use. The Retro-2.1 concentration was determined using HPLC after dilution of the solution in MeOH. Drug loadings and encapsulation efficiencies were calculated using the following formula:(1) encapsulation yield=100*mdrug dissolved/mdrug addeddrug loading=100* mdrug/mdrug+mpolymer
as §2

[13] = SC injection of 25 mg/kg of Retro-2.1 in PLGA–PEG–PLGA, mice
[14] = female, BALB/c, mouse, plasma, SC injection of 25 mg/kg of Retro-2.1 in PLGA–PEG–PLGA, mice
[15] = female, BALB/c, mouse, SC injection of 25 mg/kg of Retro-2.1 in PLGA–PEG–PLGA

Molecule `Cc1nc(-c2ccc(C3N(C)c4ccc(F)cc4C(=O)N3c3ccccc3)s2)cs1` (centres unmarked) [Retro-2.1, 6-fluoro-1-methyl-2-(5-(2-methylthiazol-4-yl)thiophen-2-yl)-3-phenyl-2,3-dihydroquinazolin-4(1H)-1] has an AUC [1] of 18500 ng·h/mL, a CL/F [1] of 45 mL/min/kg and a Cmax [1] of 50.6 µg/mL. It also gave an MRT [1] of 1 h, a Tmax [1] of 0.0833 h and an AUCextra [2, 13] of 17%. For the same molecule, the VSS [2, 13] was 456 L/kg, the AUC [2, 14] was 1420 ng·h/mL and the CL/F [2, 14] was 294 mL/min/kg. It also gave an MRT [2, 14] of 26 h, a Tmax [2, 14] of 2 h and a half-life [2, 14] of 19 h. For the same molecule, the Cmax [2, 15] was 0.0752 µg/mL, the “duration of sustained release” value ([2]; mice, 25 mg/kg SC in PLGA–PEG–PLGA) was “at least 48 h” and the “signs of pain or acute toxicity” value ([2]; mice, 25 mg/kg SC in PLGA–PEG–PLGA, over 48 h) was “no sign of pain or acute toxicity was observed”. For the same molecule, the AUCextra ([3]; female, BALB/c, ip) was 2.1%, the “Thalf (elimination half-life)” value ([3]; female, BALB/c, ip) was 6.7 h and the VSS ([3]; female, BALB/c, ip) was 26.3 L/kg. The “plasmatic concentration 7 h following injection” value ([3]; female, BALB/c, ip) was 21 nM, the AUCextra ([3]; female, BALB/c, iv) was 2.3% and the “Thalf (elimination half-life)” value ([3]; female, BALB/c, iv) was 5 h. For the same molecule, the “plasmatic concentration 7 h following injection” value ([3]; female, BALB/c, iv) was 6 nM, the “signs of pain or acute toxicity” value [3] was “no sign of pain or acute toxicity was observed” and the “times more potent than Retro-2” value [4] was “about 100 times”. The EC50 ([4]; read-out: EC50 against the Shiga toxin) was 102 nM, the “drug concentration stably dissolved in polymer solution” value ([5]; 20% (w/v) PLGA–PEG–PLGA in saline) was 3250 µg/mL and the drug loading ([5]; PLGA–PEG–PLGA) was 1.9%. The encapsulation yield ([5]; PLGA–PEG–PLGA) was 98%, the “formulation stable for” value ([5]; PLGA–PEG–PLGA formulation stored at 4 °C) was “at least 13 days” and the “payload lost upon storage” value ([5]; PLGA–PEG–PLGA formulation, 25 °C, 24 h) was 20%. The “temperature at which formulation starts solidifying” value ([5]; PLGA–PEG–PLGA formulation, inverted vial method) was 31 °C, the “micelle mean diameter (DLS)” value ([5]; Retro-2.1-loaded PLGA–PEG–PLGA micelles) was 24.1 nm and the solubility [6] was under 1 µg/mL. The Non-NADPH degradation [7] was under 5%, the Clint ([7]; microsomes) was 27.8 μL.min^−1.mg of protein^−1 and the “Metabolic stability at t = 45 min (remaining)” value ([7]; microsomes, 0.75 h) was 27.4%. It also gave an EC50 [8] of 90 nM, an AUCextra ([9]; female, BALB/c) of 0.1% and a Thalf ([9]; female, BALB/c) of 3.3 h. The VSS ([9]; female, BALB/c) was 2.8 L/kg, the “plasma detectability 24 h after injection” value [9] was “barely detectable” and the “signs of pain or acute toxicity” value [9] was “no apparent sign of pain or acute toxicity was observed”. The Non-NADPH degradation [10] was under 5%, the Clint ([10]; microsomes) was 460 μL.min^−1.mg of protein^−1 and the AUC ([11]; ip) was 322 ng·h/mL. It also gave a CL/F ([11]; ip) of 103 mL/min/kg, a Cmax ([11]; ip) of 0.304 µg/mL and an MRT ([11]; ip) of 4.2 h. It also gave a Tmax ([11]; ip) of 5 min, a half-life ([11]; ip) of 5 h and an AUC ([11]; iv) of 213 ng·h/mL. The Cmax ([11]; iv) was 0.328 µg/mL, the MRT ([11]; iv) was 2.9 h and the Tmax ([11]; iv) was 5 min. The Vd ([11]; iv) was 27.5 L/kg, the clearance ([11]; iv) was 157 mL/min/kg and the half-life ([11]; iv) was 6.7 h. The “formulation stable for” value ([12]; PEG–PLA formulation stored at 4 °C and −20 °C) was “at least 48 h”, the “drug load precipitated upon storage” value ([12]; PEG–PLA formulation, room temperature, 24 h) was “about 35%” and the drug loading ([12]; PEG–PLA micelles) was 15%. The encapsulation yield ([12]; PEG–PLA micelles) was 91%, the “micelle mean diameter (DLS)” value ([12]; Retro-2.1-loaded PEG–PLA micelles) was 22.5 nm and the “drug concentration dissolved in polymer solution” value ([12]; in 26.4 mg/mL of PEG–PLA solution, thin-film hydration, HPLC) was 4550 µg/mL.
With `CN1c2ccc(F)cc2C(=O)N(c2ccccc2)C1c1ccc(-c2csc(CO)n2)s1` (centres unmarked) [compound 3] the AUC [1] was 6700 ng·h/mL, the Cmax [1] was 2.76 µg/mL and the MRT [1] was 3.43 h. For the same molecule, the Tmax [1] was 0.25 h, the AUCextra [2, 13] was 12% and the AUC [2, 14] was 621 ng·h/mL. For the same molecule, the MRT [2, 14] was 21 h, the Tmax [2, 14] was 2 h and the half-life [2, 14] was 15 h. The Cmax [2, 15] was 0.0393 µg/mL, the “fold less potent than Retro-2.1” value [8] was 80 fold and the EC50 [8] was 7380 nM. For the same molecule, the AUCextra ([9]; female, BALB/c) was 0.4% and the Thalf ([9]; female, BALB/c) was 3.7 h.
